Test results reported in patent publication US20110312945A1, “CRTH2 MODULATORS” (priority 2008, published 2011).

target: T1, CRTH2 (Homo sapiens, UniProt Q9Y5Y4); assay: DPBS CD11b Antagonist Assay; type: cell-based; conditions: polymorphonuclear cells in PBS, eosinophil CD11b expression, challenge with 15R-Methyl-PGD2 (10 nM)
T1 construct: polymorphonuclear cells (0.5 ml; 10^6/ml cells) in PBS containing 0.9 mM CaCl2 and 0.5 mM MgCl2; endogenous in cells; host or cells: polymorphonuclear cells (eosinophils gated by flow cytometry)
T1 sequence (Q9Y5Y4 1-395): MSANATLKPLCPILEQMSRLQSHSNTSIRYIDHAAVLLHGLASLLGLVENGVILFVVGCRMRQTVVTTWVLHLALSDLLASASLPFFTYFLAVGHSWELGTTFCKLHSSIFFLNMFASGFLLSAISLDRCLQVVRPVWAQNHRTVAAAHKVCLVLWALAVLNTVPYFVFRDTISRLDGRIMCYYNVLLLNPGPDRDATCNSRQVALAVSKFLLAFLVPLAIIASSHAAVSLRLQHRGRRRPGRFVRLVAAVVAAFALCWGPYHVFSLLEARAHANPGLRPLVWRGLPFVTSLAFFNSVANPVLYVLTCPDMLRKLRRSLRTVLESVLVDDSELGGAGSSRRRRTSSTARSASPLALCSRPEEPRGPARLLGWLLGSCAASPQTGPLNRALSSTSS
Experimental: DPBS CD11b Antagonist Assay. The potential CRTH2 antagonist activity of certain compounds was tested using a CD11b expression assay using essentially the method described by Monneret et al. (J Pharmacol Exp Ther 304:349-55, 2003). Briefly, polymorphonuclear cells (0.5 ml; 10^6/ml cells) in PBS containing 0.9 mM CaCl2 and 0.5 mM MgCl2) were preincubated with various concentrations of test compounds at room temperature for 10 minutes before they were challenged with the agonist 15R-Methyl-PGD2 (10 nM). The incubations were terminated by the addition of ice-cold FACSFlow (BD Biosciences; Cat# 342003) and centrifugation (400 g for 5 minutes at 4° C.). The cells were then incubated for 30 minutes at 4° C. with a mixture of PE-labeled mouse anti-human VLA-4 (5 μl; BD Biosciences) and FITC-labeled mouse anti-human CD11b (10 μl; Beckman Coulter). The cells were then incubated with Optilyse C (0.25 ml; Beckman Coulter) for 15 minutes, centrifuged, and then fixed in PBS (0.4 ml; calcium and magnesium free) containing 1% formaldehyde. The distribution of fluorescence intensities among 60,000 cells was measured by flow cytometry. Eosinophils were gated out on the basis of their granularity (high side scatter) and labeling with VLA-4 (PE fluorescence). CD11b was then measured in the eosinophil region on the basis of fluorescence due to FITC. All data were corrected for the value obtained for the corresponding isotope control antibody.

Row | SMILES | IC50 [nM]
1 | Cc1c(Cc2ccc(S(=O)(=O)NC3CC3)cc2)c2c(n1CC(=O)O)CCC(C)(C)C2 [Example I-15, 2-(3-(4-(N-Cyclopropylsulfamoyl)benzyl)-2,5,5-trimethyl-4,5,6,7-tetrahydro-1H-indol-1-yl)acetic acid] | < 5
2 | Cc1c(Cc2ccc(S(=O)(=O)N3CCCCCC3)cc2)c2c(n1CC(=O)O)CCC(C)(C)C2 [Example I-16, 2-(3-(4-(Azepan-1-ylsulfonyl)benzyl)-2,5,5-trimethyl-4,5,6,7-tetrahydro-1H-indol-1-yl)acetic acid] | 5 to 100
3 | Cc1c(Cc2ccc(S(=O)(=O)N(C)C)cc2)c2c(n1CC(=O)O)CCC(C)(C)C2 [Example I-18, 2-(3-(4-(N,N-Dimethylsulfamoyl)benzyl)-2,5,5-trimethyl-4,5,6,7-tetrahydro-1H-indol-1-yl)acetic acid] | < 5
4 | CCOC(=O)Cn1c(C)c(Cc2ccccc2S(=O)(=O)N2CCOCC2)c2c1CCC(C)(C)C2 [Example I-25, Ethyl 2-(2,5,5-trimethyl-3-(2-(morpholinosulfonyl)benzyl)-4,5,6,7-tetrahydro-1H-indol-1-yl)acetate] | 100 to 500
5 | Cc1c(Cc2ccccc2S(=O)(=O)N2CCOCC2)c2c(n1CC(=O)O)CC(C)(C)CC2 [Example I-26, 2-(2,6,6-trimethyl-3-(2-(morpholinosulfonyl)benzyl)-4,5,6,7-tetrahydro-1H-indol-1-yl)acetic acid] | < 5
6 | Cc1c(Cc2cccc(S(=O)(=O)N3CCOCC3)c2)c2c(n1CC(=O)O)CCC(C)(C)C2 [Example I-27, 2-(2,5,5-trimethyl-3-(3-(morpholinosulfonyl)benzyl)-4,5,6,7-tetrahydro-1H-indol-1-yl)acetic acid] | 5 to 100
7 | Cc1c(Cc2ccccc2S(=O)(=O)N2CCOCC2)c2c(n1[C@H](C)C(=O)O)CCC(C)(C)C2 [Example I-35, (R)-2-(2,5,5-trimethyl-3-(2-(morpholinosulfonyl)benzyl)-4,5,6,7-tetrahydro-1H-indol-1-yl)propanoic acid] | < 5
8 | Cc1c(Sc2ccc(S(=O)(=O)N3CCOCC3)cc2)c2c(n1CC(=O)O)CCC(C)(C)C2 [Example I-37, 2-(2,5,5-trimethyl-3-(4-(morpholinosulfonyl)phenylthio)-4,5,6,7-tetrahydro-1H-indol-1-yl)acetic acid] | < 5
9 | Cc1c(C(O)c2ccccc2S(=O)(=O)N2CCCC2)c2c(n1CC(=O)O)CC(C)(C)CC2=O (stereo not shown) [Example I-50, 2-(3-(hydroxy(2-(pyrrolidin-1-ylsulfonyl)phenyl)methyl)-2,6,6-trimethyl-4-oxo-4,5,6,7-tetrahydro-1H-indol-1-yl)acetic acid] | > 500
10 | Cc1c(Cc2ccccc2S(=O)(=O)N(C)C)c2c(n1CC(=O)O)CC(C)(C)CC2=O [Example I-52, 2-(3-(2-(N,N-dimethylsulfamoyl)benzyl)-2,6,6-trimethyl-4-oxo-4,5,6,7-tetrahydro-1H-indol-1-yl)acetic acid] | < 5
11 | CCOC(=O)Cn1c(C)c(Sc2ccc(Br)cc2S(=O)(=O)N2CCCC2)c2c1CC(C)(C)CC2=O [Example I-53, ethyl 2-(3-(4-bromo-2-(pyrrolidin-1-ylsulfonyl)phenylthio)-2,6,6-trimethyl-4-oxo-4,5,6,7-tetrahydro-1H-indol-1-yl)acetate] | > 500
12 | CCOC(=O)Cn1c(C)c(Sc2ccc(C)cc2S(=O)(=O)N2CCCC2)c2c1CC(C)(C)CC2=O [Example I-54, ethyl 2-(2,6,6-trimethyl-3-(4-methyl-2-(pyrrolidin-1-ylsulfonyl)phenylthio)-4-oxo-4,5,6,7-tetrahydro-1H-indol-1-yl)acetate] | 100 to 500
13 | CCOC(=O)Cn1c(C)c(Cc2ccccc2S(=O)(=O)N2CCOCC2)c2c1CC(C)(C)CC2=O [Example I-56, ethyl 2-(2,6,6-trimethyl-3-(2-(morpholinosulfonyl)benzyl)-4-oxo-4,5,6,7-tetrahydro-1H-indol-1-yl)acetate] | 100 to 500
